US4005103A, “Pyrrolidine derivatives” (priority 1973, dated 1977)
Read-outs that look alike come from different tables or passages of the source.

Tests used:
[1] = Anorexigenic activity in rats; assay type: in vivo, Sprague Dawley male rats; conditions: for ED50: Rattus norvegicus, oral, Litchfield and Wilcoxon method, read-out: ED50 (50% inhibiting dose in relation to the consumption of food)
Method: 3. ANOREXIGENIC ACTIVITY IN RATS
Two batches of three Sprague Dawley male rats (130 - 180 g) are conditioned to take their daily food over the course of 7 hours. Water is given as desired. The test compound is administered orally 30 minutes before the food is presented. The amount ingested is measured 1 hour and 2 hours later. The 50% inhibiting dose in relation to the consumption of food (ED50) and the confidence range are calculated according to the Litchfield and Wilcoxon method.
Table III gives the percentage inhibition in relation to the consumption of food as a function of the doses administered.

[2] = Potentiation of amphetamine: stereotypies in rats after d-amphetamine sulphate; assay type: in vivo; conditions: 30 min before 5 mg/kg d-amphetamine sulphate i.p., over 3 hours, maximum 24
Method: 1. POTENTIATION OF AMPHETAMINE
The test compound is administered intraperitoneally to rats 30 minutes before the intraperitoneal injection of 5 mg/kg of d-amphetamine sulphate. The intensity of the stereotypies over a period of 3 hours is assessed by attributing a number from 0 to 4. Table I indicates the sum of the assessments as a function of the doses administered. The maximum assessment is 24.

[3] = Anorexigenic activity in dogs; assay type: in vivo, Beagle dogs; conditions: Canis lupus familiaris, po, read-out: percentage inhibition of consuming food
Method: 2. ANOREXIGENIC ACTIVITY IN DOGS
Beagle dogs are conditioned to take their food over the course of 5 minutes once per day. The test compound is administered orally in the form of a single dose of 10 mg/kg one hour before the food is presented. The amount of food ingested is measured at regular intervals.
Table II gives the percentage inhibition of consuming food as a function of the time after treatment.

[4] = Clinical activity (food intake in man); assay type: in vivo; conditions: daily dose of 50 mg
Method: The compounds are preferably presented in a form suitable for oral administration, for example in the form of gelatin-coated pills containing 25 mg of the active ingredient.

[5] = Cardiovascular activity in anaesthetised dogs; assay type: in vivo; conditions: for pulmonary and systemic hypertension: amphetamine injected intravenously
Text: 5. CARDIOVASCULAR ACTIVITY

[6] = Toxicity, isolated mice (death rate); conditions: mouse, in vivo, 4 hours after treatment, read-out: percentage death rate
Method: (§1) Batches of 10 mice are placed in boxes covered with grids (20 × 10 × 10 cm), either isolated individually, or in groups of 10. The test compound is administered orally to them. The death rate is noted 4 hours after the treatment.
(§2) Tables IV and V below give the percentage death rate for the products of Examples XXIV and XXVII compared with d-amphetamine sulphate.

[7] = Toxicity, mice in groups (death rate); conditions: mouse, in vivo, 4 hours after treatment, read-out: percentage death rate
Method: as §1, §2

Structure (SMILES)	percentage inhibition in relation to the consumption of food ([1]; 1 mg/kg oral, 1 hr) [%]	percentage inhibition in relation to the consumption of food ([1]; 1 mg/kg oral, 2 hrs) [%]	percentage inhibition in relation to the consumption of food ([1]; 2 mg/kg oral, 1 hr) [%]	percentage inhibition in relation to the consumption of food ([1]; 2 mg/kg oral, 2 hrs) [%]	percentage inhibition in relation to the consumption of food ([1]; 4 mg/kg oral, 1 hr) [%]	percentage inhibition in relation to the consumption of food ([1]; 4 mg/kg oral, 2 hrs) [%]	percentage inhibition in relation to the consumption of food ([1]; 8 mg/kg oral, 1 hr) [%]	percentage inhibition in relation to the consumption of food ([1]; 8 mg/kg oral, 2 hrs) [%]	percentage inhibition in relation to the consumption of food ([1]; 16 mg/kg oral, 1 hr) [%]	percentage inhibition in relation to the consumption of food ([1]; 16 mg/kg oral, 2 hrs) [%]	ED50 ([1]; 1 hr) [mg/kg]	ED50 ([1]; 2 hrs) [mg/kg]	sum of the assessments of intensity of stereotypies ([2]; 1 mg/kg intraperitoneal)	sum of the assessments of intensity of stereotypies ([2]; 4 mg/kg intraperitoneal)	sum of the assessments of intensity of stereotypies ([2]; 16 mg/kg intraperitoneal)	inhibition in vivo at 10 mg/kg ([3]; 1 h) [%]	inhibition in vivo at 10 mg/kg ([3]; 2 h) [%]	inhibition in vivo at 10 mg/kg ([3]; 4 h) [%]	inhibition in vivo at 10 mg/kg ([3]; 24 h) [%]	inhibition in vivo at 10 mg/kg ([3]; 48 h) [%]	also measured
CC1NC(C2CC2)CC1c1ccc(Cl)cc1.Cl (stereo not drawn) [XXIV, 2-cyclopropyl-4-(p-chlorophenyl)-5-methylpyrrolidine hydrochloride]	6	5	44	53	47	34	77	71	77	80	3.5	5.6	7	22	24	100	100	100	80	50	amount of food ingested daily [4]: a decrease in the amount of food ingested daily; systemic hypotension [5]: cause systemic hypotension; pulmonary and systemic hypertension [5]: do not cause these phenomena; mortality at 4 h ([6]; 16 mg/kg oral): 0%; mortality at 4 h ([6]; 32 mg/kg oral): 0%; mortality at 4 h ([6]; 64 mg/kg oral): 0%; mortality at 4 h ([6]; 128 mg/kg oral): 27%; mortality at 4 h ([7]; 16 mg/kg oral): 0%; mortality at 4 h ([7]; 32 mg/kg oral): 0%; mortality at 4 h ([7]; 64 mg/kg oral): 0%; mortality at 4 h ([7]; 128 mg/kg oral): 0%
CC1NC(C2CC2)CC1c1ccc(Cl)c(Cl)c1.Cl (stereo not drawn) [XXVII, 2-cyclopropyl-4-(3',4'-dichlorophenyl)-5-methylpyrrolidine hydrochloride]	39	36	28	37	58	55	84	83	100	100	2.3	2.2	21	23	24	100	100	100	100	100	percentage inhibition in relation to the consumption of food ([1]; 0.5 mg/kg oral, 1 hr): 25%; percentage inhibition in relation to the consumption of food ([1]; 0.5 mg/kg oral, 2 hrs): 30%; amount of food ingested daily [4]: a decrease in the amount of food ingested daily; systemic hypotension [5]: cause systemic hypotension; pulmonary and systemic hypertension [5]: do not cause these phenomena; mortality at 4 h ([6]; 16 mg/kg oral): 0%; mortality at 4 h ([6]; 32 mg/kg oral): 20%; mortality at 4 h ([6]; 64 mg/kg oral): 70%; mortality at 4 h ([7]; 16 mg/kg oral): 0%; mortality at 4 h ([7]; 32 mg/kg oral): 0%; mortality at 4 h ([7]; 64 mg/kg oral): 0%; mortality at 4 h ([7]; 128 mg/kg oral): 70%
